{"source": "patent US10028956B2", "about": "“Methods of treating various cancers using an AXL/cMET inhibitor in combination with other agents” (Ignyta, Inc., priority 2013, dated 2018)", "key": {"AXL [1]": {"biological_target": "T1, AXL (Homo sapiens, UniProt P30530)", "T1 sequence (P30530 26-894)": "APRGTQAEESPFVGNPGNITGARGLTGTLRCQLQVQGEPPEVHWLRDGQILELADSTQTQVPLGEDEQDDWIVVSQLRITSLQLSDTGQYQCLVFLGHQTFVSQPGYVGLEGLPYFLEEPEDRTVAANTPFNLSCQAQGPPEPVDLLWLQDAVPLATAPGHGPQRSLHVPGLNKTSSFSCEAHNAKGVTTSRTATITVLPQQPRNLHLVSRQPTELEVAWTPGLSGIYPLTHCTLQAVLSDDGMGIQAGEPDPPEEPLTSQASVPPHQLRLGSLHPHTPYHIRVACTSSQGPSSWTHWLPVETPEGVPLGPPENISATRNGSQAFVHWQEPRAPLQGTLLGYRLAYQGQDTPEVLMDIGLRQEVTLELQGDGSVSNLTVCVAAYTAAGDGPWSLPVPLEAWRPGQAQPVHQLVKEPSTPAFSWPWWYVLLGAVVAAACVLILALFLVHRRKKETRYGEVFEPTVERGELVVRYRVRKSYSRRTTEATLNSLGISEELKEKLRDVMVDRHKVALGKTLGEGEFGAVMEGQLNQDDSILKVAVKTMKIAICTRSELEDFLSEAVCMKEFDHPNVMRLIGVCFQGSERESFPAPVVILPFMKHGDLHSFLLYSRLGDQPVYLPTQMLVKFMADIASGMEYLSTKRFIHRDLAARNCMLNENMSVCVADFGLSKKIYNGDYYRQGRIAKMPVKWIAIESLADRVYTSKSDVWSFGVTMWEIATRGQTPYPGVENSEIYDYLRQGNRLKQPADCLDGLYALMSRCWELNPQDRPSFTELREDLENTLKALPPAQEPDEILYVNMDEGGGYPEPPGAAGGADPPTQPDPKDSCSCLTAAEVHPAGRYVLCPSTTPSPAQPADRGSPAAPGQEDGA", "assay": "Cellular AXL inhibition in AXL-transfected 293GT cells", "assay_type": "cell-based"}, "PK in monkey": {"assay": "PK in monkey", "conditions": "in vivo"}, "AXL [2]": {"biological_target": "T1, AXL", "assay": "Dissociation from AXL, LanthaScreen Eu-kinase binding assay", "description": "(§1) Assay buffer was prepared as for association, and used for all dilutions. A 5-μL aliquot of 80 nM LanthaScreen Eu-anti-GST antibody:20 nM GST-tagged enzyme mix was added to the Greiner low volume white 384-well plate, with antibody only added to control wells. Compound (100 nL) in DMSO was added by pintool at 2000-fold over the final assay concentration. DMSO was added to no inhibitor control wells. After a one-hour incubation at ambient temperature to allow formation of the enzyme-inhibitor complex, 2 μL of the reaction mix was transferred to a 384 Optiplate (PerkinElmer) and 78 μL of kinase tracer 236 was added. The final tracer concentration was 100 nM for AXL and 200 nM for c-Met. Readings were immediately initiated and total of 60 time points were taken at 2-min intervals, at 25° C. or 37° C. The background subtracted ratio was normalized to the no inhibitor control to calculate the % tracer bound, which was plotted with respect to time. The data was fitted to the one phase association model in GraphPad Prism (La Jolla Calif.)."}, "c-Met": {"biological_target": "c-Met (Homo sapiens, UniProt P08581)", "sequence (P08581 25-1390)": "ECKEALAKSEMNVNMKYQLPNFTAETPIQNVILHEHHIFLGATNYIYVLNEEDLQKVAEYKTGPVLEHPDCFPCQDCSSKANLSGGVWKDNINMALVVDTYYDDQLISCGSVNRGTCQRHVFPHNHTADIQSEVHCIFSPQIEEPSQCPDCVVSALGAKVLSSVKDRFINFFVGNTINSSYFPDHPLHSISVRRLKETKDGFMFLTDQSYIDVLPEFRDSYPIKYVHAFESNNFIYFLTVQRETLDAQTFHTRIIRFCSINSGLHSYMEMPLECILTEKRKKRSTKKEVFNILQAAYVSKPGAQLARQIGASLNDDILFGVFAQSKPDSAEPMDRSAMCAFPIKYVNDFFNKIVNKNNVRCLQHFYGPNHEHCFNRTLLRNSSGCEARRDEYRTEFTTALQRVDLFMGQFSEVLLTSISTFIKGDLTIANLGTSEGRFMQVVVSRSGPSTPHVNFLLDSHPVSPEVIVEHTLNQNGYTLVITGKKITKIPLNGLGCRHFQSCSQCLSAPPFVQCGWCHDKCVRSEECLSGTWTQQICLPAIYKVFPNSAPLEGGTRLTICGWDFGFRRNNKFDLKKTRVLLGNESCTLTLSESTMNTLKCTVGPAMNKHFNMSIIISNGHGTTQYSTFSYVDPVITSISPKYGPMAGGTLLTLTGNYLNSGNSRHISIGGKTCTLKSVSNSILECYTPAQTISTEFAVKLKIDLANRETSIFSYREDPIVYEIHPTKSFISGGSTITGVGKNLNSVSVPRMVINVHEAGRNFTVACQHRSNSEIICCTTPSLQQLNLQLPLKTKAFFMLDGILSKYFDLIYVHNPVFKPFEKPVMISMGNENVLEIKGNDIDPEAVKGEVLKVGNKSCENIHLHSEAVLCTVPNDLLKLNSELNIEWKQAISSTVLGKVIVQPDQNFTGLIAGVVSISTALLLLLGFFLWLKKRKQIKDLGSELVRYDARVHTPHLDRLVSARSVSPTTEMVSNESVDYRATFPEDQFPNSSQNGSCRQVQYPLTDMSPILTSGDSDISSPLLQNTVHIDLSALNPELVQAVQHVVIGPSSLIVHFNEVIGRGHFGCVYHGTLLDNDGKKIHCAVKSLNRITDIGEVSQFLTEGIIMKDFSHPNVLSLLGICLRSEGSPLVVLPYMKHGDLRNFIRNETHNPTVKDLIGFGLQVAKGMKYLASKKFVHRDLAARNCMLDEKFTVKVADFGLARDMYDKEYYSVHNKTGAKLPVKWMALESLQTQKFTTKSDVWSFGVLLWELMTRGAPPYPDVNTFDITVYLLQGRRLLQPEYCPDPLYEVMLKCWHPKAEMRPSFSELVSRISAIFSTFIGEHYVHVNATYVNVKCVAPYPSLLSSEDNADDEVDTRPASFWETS", "assay": "Dissociation from c-Met, LanthaScreen Eu-kinase binding assay", "description": "as §1"}, "[3]": {"test_system": "CTG-0157 primary NSCLC human TumorGraft", "assay": "NSCLC TumorGraft model CTG-0157", "assay_type": "in vivo, mice", "conditions": "CTG-0157, 14 days", "description": "(§2) Methods (for the experiments shown in FIGS. 10 and 11) • Female immunocompromised nu/nu mice (Harlan) between 6-9 weeks of age were housed on irradiated papertwist-enriched ⅛″ corncob bedding (Sheperd) in individual HEPA ventilated cages (Innocage® IVC, Innovive USA) on a 12-hour light-dark cycle at 68-74° F. (20-23° C.) and 30-70% humidity. Animals were fed water ad libitum (reverse osmosis, 2 ppm Cl2) and an irradiated Test rodent diet (Teklad 2919) consisting of 19% protein, 9% fat, and 4% fiber. • Tumor Models: Champions TumorGraft models of NSCLC are owned by Champions Oncology. In this study, animals were implanted unilaterally on the right flank with tumor fragments harvested from host animals. […] Erlotinib (manufacturer: OSI Pharmaceuticals; National Drug Code: 50242-062-01; Lot #: US0002) was formulated using 100% PEG-400 as the vehicle according to manufacturer's specifications.\nEfficacy measurements: Beginning Day 0, tumor dimensions were measured twice weekly by digital caliper (Fowler Ultra-Cal IV) and data including individual and mean estimated tumor volumes (Mean TV±SEM) were recorded for each group; tumor volume was calculated using the formula TV=width^2×length×0.52. At study completion, percent tumor growth inhibition (% TGI) values were calculated and reported for each treatment group (T) versus control (C) using initial (i) and final (f) tumor measurements by the formula: % TGI=1−Tf−Ti/Cf−C; single agent or combination therapies resulting in a TGI>50 at study completion are considered active in the tested model at the evaluated treatment regimen according to NCI guidelines. […] If the PR persisted until study completion, percent tumor regression (% TR) was determined using the formula: % TR=1−Tf/Ti×100; a mean value was calculated if multiple PR mice occurred in one group. […] Statistical differences in tumor volume were determined using a two-tailed One-Way Analysis of Variance (ANOVA) followed by the Dunett's multiple comparisons test comparing treated groups with control and combinations with standard agent alone when possible. […]"}, "[4]": {"test_system": "CTG-0192 erlotinib-sensitive NSCLC TumorGraft", "assay": "NSCLC TumorGraft model CTG-0192", "assay_type": "in vivo, mice", "conditions": "for % Tumor Growth Inhibition: CTG-0192, 32 days", "description": "as §2\nEfficacy measurements: Beginning Day 0, tumor dimensions were measured twice weekly by digital caliper (Fowler Ultra-Cal IV) and data including individual and mean estimated tumor volumes (Mean TV±SEM) were recorded for each group; tumor volume was calculated using the formula TV=width^2×length×0.52. At study completion, percent tumor growth inhibition (% TGI) values were calculated and reported for each treatment group (T) versus control (C) using initial (i) and final (f) tumor measurements by the formula: % TGI=1−Tf−Ti/Cf−C; single agent or combination therapies resulting in a TGI>50 at study completion are considered active in the tested model at the evaluated treatment regimen according to NCI guidelines. Individual mice reporting a tumor volume ≤50% of the Day 0 measurement for two consecutive measurements over a seven day period were considered partial responders (PR). If the PR persisted until study completion, percent tumor regression (% TR) was determined using the formula: % TR=1−Tf/Ti×100; a mean value was calculated if multiple PR mice occurred in one group. Individual mice lacking palpable tumors (<4×4 mm^2 for two consecutive measurements over a seven day period) were classified as complete responders (CR); a CR that persisted until study completion was considered a tumor-free survivor (TFS). TFS animals are excluded from efficacy calculations. Statistical differences in tumor volume were determined using a two-tailed One-Way Analysis of Variance (ANOVA) followed by the Dunett's multiple comparisons test comparing treated groups with control and combinations with standard agent alone when possible. All data collected in this study was managed electronically and stored on a redundant server system."}, "[5]": {"assay": "Tolerability / body weight in the xenograft studies", "assay_type": "in vivo", "conditions": "in all of the above studies"}, "AXL [6]": {"biological_target": "T1, AXL", "assay": "Cellular potency in NCI-H1299 human NSCL cells", "assay_type": "cell-based", "design": "endogenous in cells; host or cells: NCI-H1299 human NSCLC cells (culture; subcutaneous xenograft in mice)"}, "[7]": {"conditions": "intravenous, 0.5 mg/kg i.v. and p.o."}}, "note": "Marks after values point to notes of the source that are not given here.", "data": [{"smiles": "COc1cc2nccc(Oc3ccc(NC(=O)c4cn(C(C)C)c(=O)n(-c5ccc(F)cc5)c4=O)cc3F)c2cc1OC", "note": "[CEP-40783, 3-(4-Fluorophenyl)-1-isopropyl-2,4-dioxo-1,2,3,4-tetrahydropyrimidine-5-carboxylic acid [4-(6,7-dimethoxyquinolin-4-yloxy)-3-fluorophenyl]-amide]", "values": [{"measurement": "IC50", "setting": "AXL [1]", "value": 0.26, "unit": "nM"}, {"measurement": "Cmax", "setting": "PK in monkey; 0.5 mg/kg i.v. and p.o.", "value": 260, "unit": "ng/mL"}, {"measurement": "Vd", "setting": "PK in monkey; [7]", "value": 1.2, "unit": "L/kg"}, {"measurement": "clearance", "setting": "PK in monkey; [7]", "value": 2.2, "unit": "mL/min/kg"}, {"measurement": "half-life", "setting": "PK in monkey; iv, 0.5 mg/kg i.v., read-out: t1/2 i.v. (converted)", "value": 14.5, "unit": "h"}, {"measurement": "bioavailability", "setting": "PK in monkey; oral, 0.5 mg/kg i.v. and p.o.", "value": 77, "unit": "%"}, {"measurement": "AUC(0-t)", "setting": "PK in monkey; po, 0.5 mg/kg p.o.", "value": 3030, "unit": "ng·h/mL"}, {"measurement": "off-rate from AXL", "setting": "AXL [2]; 25° C.", "value": "very slow"}, {"measurement": "dissociation rate from AXL at higher temperature", "setting": "AXL [2]; 37° C. versus 25° C.", "value": "slightly enhanced"}, {"measurement": "off-rate from c-Met", "setting": "c-Met; 25° C.", "value": "very slow"}, {"measurement": "dissociation rate from c-Met at higher temperature", "setting": "c-Met; 37° C. versus 25° C.", "value": "slightly enhanced"}, {"measurement": "% Tumor Growth Inhibition", "setting": "[3]; 10 mg/kg po/qd", "value": 3, "unit": "%"}, {"measurement": "% Tumor Growth Inhibition", "setting": "[3]; 30 mg/kg po/qd", "value": 85, "unit": "%*†"}, {"measurement": "acquired resistance during the treatment phase", "setting": "[4]; CTG-0192", "value": "no acquired resistance"}, {"measurement": "% Tumor Growth Inhibition", "setting": "[4]; 10 mg/kg po/qd", "value": 85, "unit": "%*"}, {"measurement": "% Tumor Growth Inhibition", "setting": "[4]; 30 mg/kg po/qd", "value": 71, "unit": "%*"}, {"measurement": "tumor response, single agent", "setting": "[4]; CTG-0192, also after dosing discontinued (day 34)", "value": "significant TGI/tumor stasis was maintained even after dosing was discontinued"}, {"measurement": "tolerability, body weight", "setting": "[5]", "value": "well tolerated with no compound-related body weight loss"}, {"measurement": "IC50", "setting": "AXL [6]", "value": 0.1, "unit": "nM"}]}]}
